Experimental data from PMC12998938, “Neutrophil store-operated Ca^2+ entry: A correctable biomarker of cystic fibrosis lung disease progression” (Journal of cystic fibrosis : official journal of the …, 2025).

Columns and labels:
[1] = test system: HEK293T Orai1, Orai2 and Orai3 triple knockout cells; assay: SOCE in Orai1/2/3 triple knockout HEK293T cells; type: cell-based; details: thapsigargin, 7-9 replicates, 3 experiments
From the text: We hypothesized that inhibiting SOCE in CF neutrophils may reduce the secretion of neutrophil elastase and other proteins associated with CF lung disease. To validate ELD607’s specificity for Orai1 over Orai2 and Orai3, we first evaluated ELD607 function in HEK293T cells that had Orai1, Orai2 and Orai3 stably knocked out. […] Next we evaluated ELD607’s ability to inhibit SOCE in non-CF and CF neutrophils.
Supplemental figure 3. […] Dose responses of thapsigargin-induced changes in cytoplasmic Ca^2+ concentrations. These studies were performed in HEK293T where Orai1, Orai2 and Orai3 had been stably knocked down (triple knockout cells, TKO) or in TKO cells that were transiently transfected with Orai1, Orai2 or Orai3 as indicated. All data are from 7-9 replicates per data point from 3 separate experiments.

[2] = test system: non-CF neutrophils; assay: Neutrophil degranulation multiplex assay, non-CF neutrophils; type: cell-based, human; details: 3 h, 1 μM thapsigargin 30 min, vs vehicle, paired t-test
Procedure: (§1) Neutrophils were immediately isolated by negative selection from deidentified blood samples using an EasySep human neutrophil isolation kit (Stem Cell Technologies) as described. Cytosolic Ca^2+ was measured using Fluo-4 as described. Protein lysate from isolated blood neutrophils was characterized by liquid chromatography with tandem mass spectrometry (LC-MS/MS) as described. Degranulation products in media were quantified by Luminex assay using a custom Bio-Plex human kit (BioRad) per the manufacturer’s protocol […]. Detailed methods for all experiments and measurements are provided in an online data supplement.
(§2) Multiple neutrophil functions, including neutrophil degranulation, are Ca^2+ dependent. Neutrophil degranulation results in an increase in several proteases in the lung, including neutrophil elastase, a key driver of CF lung damage. Accordingly, we investigated the impact of ELD607 on neutrophil degranulation as a marker of Ca^2+-dependent neutrophilic function. We used a multiplex assay to quantify key granule proteins released into media after a 3 h pretreatment with 10 μM ELD607 or vehicle control followed by a 30 min stimulation with 1 μM thapsigargin. Levels of myeloperoxidase (MPO; primary granules), lactoferrin (specific granules) and matrix metalloproteinase-9 (MMP9; tertiary granules) release were similar between non-CF and CF neutrophils (Fig. 4A–C).
(§3) Fig. 4. ELD607 inhibits degranulation in non-CF and CF neutrophils. Neutrophil degranulation (A-C) was assayed by measuring the concentration of representative constituents of (A) primary granules, MPO (non-CF, n = 9; CF, n = 13); (B) secondary granules, lactoferrin (non-CF, n = 12; CF, n = 17) and (C) tertiary granules, MMP-9 (non-CF, n = 9; CF, n = 12). […]
(§4) Multiplex assay. […] Supernatant was collected and analyzed for a panel of neutrophil granule proteins (MPO, lactoferrin, MMP9) using a Bio-Plex human kit (BioRad) per the manufacturer’s protocol. Plates were then analyzed using a Bio-Plex MAGPIX System (BioRad).

[3] = test system: CF neutrophils; assay: Neutrophil degranulation multiplex assay, CF neutrophils; type: cell-based, human; details: 3 h, 1 μM thapsigargin 30 min, vs vehicle, paired t-test
Procedure: as §1, §2, §3, §4

[4] = test system: Staphylococcus aureus-infected mice; details: ref [21], cited from earlier work
[5] = test system: neutrophil elastase; details: cited from earlier work

## VHDIVNMLIRG [ELD607]
[1]
  effect on SOCE: no effect on SOCE
[2]; n = 9, 10 μM
  MMP9 release (tertiary granules): significantly reduced
  MPO release (primary granules): significantly reduced
[2]; n = 12, 10 μM
  lactoferrin release (specific/secondary granules): significantly reduced
[3]; n = 12, 10 μM
  MMP9 release (tertiary granules): significantly reduced
[3]; n = 13, 10 μM
  MPO release (primary granules): significantly reduced
[3]; n = 17, 10 μM
  lactoferrin release (specific/secondary granules): significantly reduced
[4]; S. aureus-infected mice
  neutrophilia and neutrophil elastase release: reduces neutrophilia and neutrophil elastase release
[4]; mice, S. aureus, reduced lung injury, increased survival
  neutrophil influx into the lungs: reduces neutrophil influx into the lungs of mice
[5]
  stability in neutrophil elastase: protease-resistant and stable in CF patient-derived neutrophil elastase
